Assay [1] has as its target T1, beta-catenin/TCF4 engagement (Homo sapiens, UniProt P35222).
T1 construct: expressed in transfected cells; host or cells: HEK293
T1 sequence (P35222 1-781): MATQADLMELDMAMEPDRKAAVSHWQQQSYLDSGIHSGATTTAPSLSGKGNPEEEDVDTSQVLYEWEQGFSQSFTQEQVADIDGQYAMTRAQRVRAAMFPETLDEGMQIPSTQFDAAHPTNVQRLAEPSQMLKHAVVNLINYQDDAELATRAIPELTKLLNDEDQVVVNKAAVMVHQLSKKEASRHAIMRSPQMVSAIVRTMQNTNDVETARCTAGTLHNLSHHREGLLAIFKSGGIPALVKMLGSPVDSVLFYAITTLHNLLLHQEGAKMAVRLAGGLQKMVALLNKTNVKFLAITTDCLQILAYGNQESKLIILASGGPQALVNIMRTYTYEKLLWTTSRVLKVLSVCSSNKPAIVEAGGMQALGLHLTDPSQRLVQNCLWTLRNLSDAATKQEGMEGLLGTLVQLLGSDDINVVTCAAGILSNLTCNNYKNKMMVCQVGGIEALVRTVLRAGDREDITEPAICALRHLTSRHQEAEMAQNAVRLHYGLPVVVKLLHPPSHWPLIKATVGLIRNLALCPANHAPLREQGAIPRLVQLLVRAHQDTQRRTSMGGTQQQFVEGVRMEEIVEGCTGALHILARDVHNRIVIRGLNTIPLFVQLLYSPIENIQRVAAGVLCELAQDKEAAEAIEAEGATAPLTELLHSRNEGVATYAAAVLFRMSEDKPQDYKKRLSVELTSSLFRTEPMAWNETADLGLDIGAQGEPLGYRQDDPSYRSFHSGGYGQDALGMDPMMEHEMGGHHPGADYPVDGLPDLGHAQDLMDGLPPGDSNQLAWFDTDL
Nature of the assay: Nano-BRET target engagement assay (B-cat-Halo & TCF4-Luc in HEK293 cells). It is filed as cell-based. Particulars: read-out: NanoBRET Abs IC50.

For assay [2], the target named is T2, full-length beta-Catenin (Uniprot ID P35222) (Homo sapiens, UniProt P35222).
T2 construct: 10 nM full-length beta-Catenin (Uniprot ID P35222)
T2 sequence (P35222 1-781): T1 sequence (P35222 1-781)
Nature of the assay: Fluorescence polarization IC50 (beta-catenin / 5FAM-TCF4 10-53 competition). Particulars: fluorescence polarization; read-out: beta-Catenin FP IC50. The format is binding. (In fluorescence polarisation assays a small probe gives low polarisation when free and higher when bound to something large.)

Each structure is given as a SMILES string.

The text below walks through data of patent US20240116985A1, “STAPLED PEPTIDES AND METHODS THEREOF” (priority 2020, published 2024).

For orientation: IC50 means the concentration that gives 50% inhibition. `CC(=O)N1CCC[C@]12CC=CCCCC1(CCCC=CCCCOC(=O)N3CC[C@@](C(=O)N[C@@H](Cc4ccsc4)C(=O)N[C@@H](Cc4csc5ccccc45)C(=O)N[C@@H](CCC(N)=O)C(N)=O)(C3)NC(=O)[C@H](Cn3cc(CN4CCOCC4)nn3)NC(=O)[C@H](Cc3ccccc3)NC(=O)[C@H](C)NC(=O)[C@H](C)NC(=O)[C@H](CN(CC(=O)O)CC(F)(F)F)NC(=O)[C@H](CC(=O)O)NC1=O)NC(=O)[C@H](CC(C)(C)C)NC(=O)[C@H](CC(=O)O)NC2=O` (stereo partly drawn) [I-1867, Ac-PL3-Asp-Npg-B5-Asp-TfeGA-Ala-Ala-Phe-[MorphCH2]TriAzDap-PyrS2-3Thi-BztA-Gln-NH2]: the figures for the IC50 in assay [1] and in assay [2] were 16400 nM and 7 nM, respectively.

As for `CC(=O)N1CCC[C@]12CC=CCCCC1(CCCC=CCCCOC(=O)N3CC[C@@](C(=O)N[C@@H](Cc4ccsc4)C(=O)N[C@@H](Cc4csc5ccccc45)C(=O)N[C@@H](CCC(N)=O)C(N)=O)(C3)NC(=O)[C@H](CC(N)=O)NC(=O)[C@H](Cc3ccccc3)NC(=O)[C@H](C)NC(=O)[C@H](C)NC(=O)[C@H](CCCNC(=N)N)NC(=O)[C@H](CC(=O)O)NC1=O)NC(=O)[C@H](CC(C)(C)C)NC(=O)[C@H](CC(=O)O)NC2=O` (stereo partly drawn) [I-1890, Ac-PL3-Asp-Npg-B5-Asp-Arg-Ala-Ala-Phe-Asn-PyrS2-3Thi-BztA-Gln-NH2], the IC50 in assay [1] was above 20000 nM; in assay [2], 31 nM.

With `CC(=O)N1CCC[C@]12CC=CCCCC1(CCCC=CCCCOC(=O)N3CC[C@@](C(=O)N[C@@H](Cc4ccsc4)C(=O)N[C@@H](Cc4csc5ccccc45)C(=O)N[C@@H](CCC(N)=O)C(N)=O)(C3)NC(=O)[C@H](CC(N)=O)NC(=O)[C@H](Cc3ccccc3)NC(=O)[C@H](C)NC(=O)[C@H](C)NC(=O)[C@H](CCCNC(=N)N)NC(=O)[C@H](CC(=O)O)NC1=O)NC(=O)[C@H](CC(C)(C)C)NC(=O)[C@H](CC(=O)O)NC2=O` (stereo partly drawn) [I-1891, Ac-PL3-Asp-Npg-B5-Asp-Arg-Ala-Ala-Phe-Asn-PyrS2-3Thi-BztA-Gln-NH2], the 50% inhibitory concentration (IC50) in assay [1] was above 20000 nM; in assay [2], 40 nM.

As to `CC(=O)N1CCC[C@]12CC=CCCCC1(CCCC=CCCCOC(=O)N3CC[C@@](C(=O)N[C@@H](CC4CCC4)C(=O)N[C@@H](Cc4csc5ccccc45)C(=O)N[C@@H](CO)C(N)=O)(C3)NC(=O)[C@H](CC(C)C)NC(=O)[C@H](Cc3ccccc3)NC(=O)[C@H](C)NC(=O)[C@H](C)NC(=O)[C@H](Cc3cccc(C(=O)O)c3)NC(=O)[C@H](CC(=O)O)NC1=O)NC(=O)[C@H](CC(C)(C)C)NC(=O)[C@H](CC(=O)O)NC2=O` (stereo partly drawn) [I-1898, Ac-PL3-Asp-Npg-B5-Asp-3COOHF-Ala-Ala-Phe-Leu-PyrS2-Cba-BztA-Ser-NH2], the concentration for half-maximal inhibition (IC50) was 10900 nM in assay [1] and 22 nM in assay [2].

Take `CC(=O)N1CCC[C@]12CC=CCCCC1(CCCC=CCCCOC(=O)N3CC[C@@](C(=O)N[C@@H](Cc4ccccc4Cl)C(=O)N[C@@H](Cc4csc5ccccc45)C(=O)N[C@@H](CO)C(N)=O)(C3)NC(=O)[C@H](CC(C)C)NC(=O)[C@H](Cc3ccccc3)NC(=O)[C@H](C)NC(=O)C(C)(C)NC(=O)[C@H](Cc3cccc(C(=O)O)c3)NC(=O)[C@H](CC(=O)O)NC1=O)NC(=O)[C@H](CC(C)(C)C)NC(=O)[C@H](CC(=O)O)NC2=O` (stereo partly drawn) [I-1899, Ac-PL3-Asp-Npg-B5-Asp-3COOHF-Aib-Ala-Phe-Leu-PyrS2-2C1F-BztA-Ser-NH2]: the IC50 is 5100 nM in assay [1] and 28 nM in assay [2].

Turning to `CC(=O)N1CCC[C@]12CC=CCCCC1(CCCC=CCCCOC(=O)N3CC[C@@](C(=O)N[C@@H](Cc4ccccc4Cl)C(=O)N[C@@H](Cc4csc5ccccc45)C(=O)N[C@@H](CO)C(N)=O)(C3)NC(=O)[C@H](CC(C)C)NC(=O)[C@H](Cc3ccccc3)NC(=O)[C@H](C)NC(=O)C(C)(C)NC(=O)[C@H](Cc3cccc(C(=O)O)c3)NC(=O)[C@H](CC(=O)O)NC1=O)NC(=O)[C@H](CC(C)(C)C)NC(=O)[C@H](CC(=O)O)NC2=O` (stereo partly drawn) [I-1900, Ac-PL3-Asp-Npg-B5-Asp-3COOHF-Aib-Ala-Phe-Leu-PyrS2-2C1F-BztA-Ser-NH2], the values for the IC50 in assay [1] and in assay [2] were above 20000 nM and 136 nM, respectively.

Turning to `CC(=O)N1CCC[C@]12CC=CCCCC1(CCCC=CCCCOC(=O)N3CC[C@@](C(=O)N[C@@H](Cc4ccccc4Cl)C(=O)N[C@@H](Cc4csc5ccccc45)C(=O)N[C@@H](CO)C(N)=O)(C3)NC(=O)[C@H](CC(C)C)NC(=O)[C@H](Cc3ccccc3)NC(=O)[C@H](C)NC(=O)[C@H](CO)NC(=O)[C@H](Cc3cccc(C(=O)O)c3)NC(=O)[C@H](CC(=O)O)NC1=O)NC(=O)[C@H](CC(C)(C)C)NC(=O)[C@H](CC(=O)O)NC2=O` (stereo partly drawn) [I-1901, Ac-PL3-Asp-Npg-B5-Asp-3COOHF-Ser-Ala-Phe-Leu-PyrS2-2C1F-BztA-Ser-NH2], the IC50 in assay [1] is 4900 nM; in assay [2], 34 nM.

On to `CC(=O)N1CCC[C@]12CC=CCCCC1(CCCC=CCCCOC(=O)N3CC[C@@](C(=O)N[C@@H](Cc4ccccc4Cl)C(=O)N[C@@H](Cc4csc5ccccc45)C(=O)N[C@@H](CO)C(N)=O)(C3)NC(=O)[C@H](CC(C)C)NC(=O)[C@H](Cc3ccccc3)NC(=O)[C@H](C)NC(=O)[C@H](CO)NC(=O)[C@H](Cc3cccc(C(=O)O)c3)NC(=O)[C@H](CC(=O)O)NC1=O)NC(=O)[C@H](CC(C)(C)C)NC(=O)[C@H](CC(=O)O)NC2=O` (stereo partly drawn) [I-1902, Ac-PL3-Asp-Npg-B5-Asp-3COOHF-Ser-Ala-Phe-Leu-PyrS2-2C1F-BztA-Ser-NH2], for which the concentration for half-maximal inhibition (IC50) amounted to 7700 nM in assay [1] and 28 nM in assay [2].

On to `CC(=O)N1CCC[C@]12CC=CCCCC1(CCCC=CCCCOC(=O)N3CC[C@@](C(=O)N[C@@H](Cc4ccccc4Cl)C(=O)N[C@@H](Cc4csc5ccccc45)C(=O)N[C@@H](CO)C(N)=O)(C3)NC(=O)[C@H](CO)NC(=O)[C@H](Cc3ccccc3)NC(=O)[C@H](C)NC(=O)[C@H](C)NC(=O)[C@H](Cc3cccc(C(=O)O)c3)NC(=O)[C@H](CC(=O)O)NC1=O)NC(=O)[C@H](CC(C)(C)C)NC(=O)[C@H](CC(=O)O)NC2=O` (stereo partly drawn) [I-1903, Ac-PL3-Asp-Npg-B5-Asp-3COOHF-Ala-Ala-Phe-Ser-PyrS2-2C1F-BztA-Ser-NH2], for which the IC50 was found to be 6400 nM in assay [1] and 14 nM in assay [2].

Turning to `CC(=O)N1CCC[C@]12CC=CCCCC1(CCCC=CCCCOC(=O)N3CC[C@@](C(=O)N[C@@H](Cc4ccccc4Cl)C(=O)N[C@@H](Cc4csc5ccccc45)C(=O)N[C@@H](CO)C(=O)N[C@H](CO)[C@@H](C)O)(C3)NC(=O)[C@H](CC(C)C)NC(=O)[C@H](Cc3ccccc3)NC(=O)[C@H](C)NC(=O)[C@H](C)NC(=O)[C@H](Cc3cccc(C(=O)O)c3)NC(=O)[C@H](CC(=O)O)NC1=O)NC(=O)[C@H](CC(C)(C)C)NC(=O)[C@H](CC(=O)O)NC2=O` (stereo partly drawn) [I-1905, Ac-PL3-Asp-Npg-B5-Asp-3COOHF-Ala-Ala-Phe-Leu-PyrS2-2C1F-BztA-Ser-Thro1], the IC50 was 9700 nM in assay [1] and 20 nM in assay [2].

`CC(=O)N1CCC[C@]12CC=CCCCC1(CCCC=CCCCOC(=O)N3CC[C@@](C(=O)N[C@@H](Cc4ccccc4Cl)C(=O)N[C@@H](Cc4csc5ccccc45)C(=O)N[C@@H](CO)C(=O)N4CCC[C@H]4CO)(C3)NC(=O)[C@H](CC(C)C)NC(=O)[C@H](Cc3ccccc3)NC(=O)[C@H](C)NC(=O)[C@H](C)NC(=O)[C@H](Cc3cccc(C(=O)O)c3)NC(=O)[C@H](CC(=O)O)NC1=O)NC(=O)[C@H](CC(C)(C)C)NC(=O)[C@H](CC(=O)O)NC2=O` (stereo partly drawn) [I-1906, Ac-PL3-Asp-Npg-B5-Asp-3COOHF-Ala-Ala-Phe-Leu-PyrS2-2C1F-BztA-Ser-Prool]: the IC50 in assay [1] is 15500 nM; in assay [2], 23 nM.
